{"source": "patent US20240226124A9", "about": "“CANNABIDIOL FOR TREATING NEURODEGENERATIVE DISEASES” (AUGUSTA UNIVERSITY RESEARCH INSTITUTE, INC., priority 2021, published 2024)", "format_in_all_cases": "in vivo, mouse", "key": {"5xFAD mice [1]": {"tested_on": "5xFAD mice", "assay": "Novel Object Recognition (NOR) test in 5xFAD mice", "settings": "CBD 10 mg/kg intraperitoneally every other day, 8 doses over 2 weeks, from −0.2±0.8 in placebo, p≤0.04", "experimental": "(§1) 5xFAD (expressing human APP and PSEN1 transgenes with a total of five AD-linked mutations) transgenic mice (male 9-12-month-olds) were used. These 5xFAD transgenic mice rapidly recapitulate major features of AD amyloid pathology. Mice were randomized into two experimental groups (placebo or CBD-treated; 6-10 mice/group) by a blinded investigator. A group of untreated wild-type (WT) experiments were performed in accordance with the rules and regulations of the Augusta University Institutional Animal Care and Use Committee (IACUC). In the treatment group, mice received CBD isolate (tetrahydrocannabinol-free, Canabidiol Ltd., Dublin, Ireland), 10 mg/kg intraperitoneally every other day for 8 doses over 2 weeks. […]\n(§2) To assess the behavior, Open Field (OF) and Novel Object Recognition (NOR) tests were used. […] The ability of the mouse to discriminate between the familiar and novel object was quantified as a discrimination index, DI=(Tn−Tf)/(Tn+Tf), where Tn is the time spent by the mouse with the novel object, and Tf indicates the time spent with the familiar object. In OF evaluation, mice were tested in a square box (40 cm by 40 cm by 40 cm) for 10 min, and activity was digitally recorded. Distance traveled, mean velocity, and time spent in the center zone were analyzed with Ethovision XT video-tracking software (Noldus Information Technology, USA)."}, "5xFAD mice [2]": {"tested_on": "5xFAD mice", "assay": "Open Field (OF) test in 5xFAD mice", "settings": "CBD 10 mg/kg intraperitoneally every other day, 8 doses over 2 weeks, 10 min test, from 190±90 sec in placebo, p>0.05", "experimental": "as §1, §2"}, "β-amyloid peptide": {"tested_on": "β-amyloid peptide", "assay": "Immunofluorescence staining of β-amyloid peptide in brain tissues", "settings": "5xFAD mice, CBD 10 mg/kg intraperitoneally every other day, 8 doses over 2 weeks; hippocampus area", "experimental": "(§3) 5xFAD (expressing human APP and PSEN1 transgenes with a total of five AD-linked mutations) transgenic mice (male 9-12-month-olds) were used. These 5xFAD transgenic mice rapidly recapitulate major features of AD amyloid pathology. Mice were randomized into two experimental groups (placebo or CBD-treated; 6-10 mice/group) by a blinded investigator. A group of untreated wild-type (WT) experiments were performed in accordance with the rules and regulations of the Augusta University Institutional Animal Care and Use Committee (IACUC). In the treatment group, mice received CBD isolate (tetrahydrocannabinol-free, Canabidiol Ltd., Dublin, Ireland), 10 mg/kg intraperitoneally every other day for 8 doses over 2 weeks. Placebo-treated mice were administered along the same schedule as CBD.\n(§4) Brain and blood tissues were collected and processed for histology and Immunofluorescence imaging. Briefly, brain tissues were labeled with specific, fluorescent-conjugated antibodies with fluorescent conjugation against amyloid-β, IL-33, IBA1 (for microglia), TREM2, and GFAP (Glial Fibrillary Acidic Protein for astrocytes identification). Slides were counterstained using DAPI (4′,6-diamidino-2-phenylindole) prior to examination and imaging by Zeiss Fluorescence Microscope."}, "IL-33 [3]": {"tested_on": "IL-33", "assay": "Immunofluorescence staining of IL-33 in brain tissues", "settings": "5xFAD mice, CBD treated compared to untreated group; more evident in astrocytes", "experimental": "as §3, §4"}, "TREM2 [4]": {"tested_on": "TREM2", "assay": "Immunofluorescence staining of TREM2 in brain tissues", "settings": "5xFAD mice, CBD treated compared to untreated group; distinctively in microglial cells", "experimental": "as §3, §4"}, "IL-33 [5]": {"tested_on": "IL-33", "assay": "Flow cytometry of IL-33 in brain astrocytes (GFAP+ cells)", "settings": "brain of 5xFAD mice, CBD 10 mg/kg intraperitoneally, 8 doses over 2 weeks; p≤0.001", "experimental": "as §1\n(§5) For flow cytometry analysis, single-cell suspension was prepared from brain, and blood by sieving the brain tissues through a […] cell strainer followed by centrifugation (252 g, 10 min). All cells were then stained with fluorescent antibodies based on routine flow cytometry staining protocol as described previously to quantify astrocytes (GFAP+cells), IL-33, myeloid cells (CD11b+), and TREM2 in the brain as well as leukocytes (CD45+) and IL-6 in the blood. IL-6 was measured as a reliable biomarker in the blood. […] Proper compensation was set to ensure the median fluorescence intensities of negative and positive cells were […] and then was used to gate the population. […]"}, "TREM2 [6]": {"tested_on": "TREM2", "assay": "Flow cytometry of TREM2 in brain microglia (CD11b+ cells)", "settings": "brain of 5xFAD mice, CBD 10 mg/kg intraperitoneally, 8 doses over 2 weeks; p≤0.0001", "experimental": "as §1, §5"}, "IL-6": {"tested_on": "IL-6", "assay": "Flow cytometry of IL-6 in peripheral blood leukocytes", "settings": "whole blood of 5xFAD mice, CBD 10 mg/kg intraperitoneally, 8 doses over 2 weeks; decreased from 6.9±1.9%, p≤0.009", "experimental": "as §1, with “(IACUC).” for “(IACUC). In the treatment group, mice received CBD isolate (tetrahydrocannabinol-free, Canabidiol Ltd., Dublin, Ireland), 10 mg/kg intraperitoneally every other day for 8 doses over 2 weeks.”\nFor flow cytometry analysis, single-cell suspension was prepared from brain, and blood by sieving the brain tissues through a […] cell strainer followed by centrifugation (252 g, 10 min). All cells were then stained with fluorescent antibodies based on routine flow cytometry staining protocol as described previously to quantify astrocytes (GFAP+cells), IL-33, myeloid cells (CD11b+), and TREM2 in the brain as well as leukocytes (CD45+) and IL-6 in the blood. IL-6 was measured as a reliable biomarker in the blood. […] Flow cytometry data were analyzed using FlowJo V10. Proper compensation was set to ensure the median fluorescence intensities of negative and positive cells were […] and then was used to gate the population. […]"}}, "data": [{"smiles": "C=C(C)[C@@H]1CCC(C)=C[C@H]1c1c(O)cc(CCCCC)cc1O", "note": "[CBD, cannabidiol]", "values": [{"measurement": "discrimination index (DI), NOR", "setting": "5xFAD mice [1]", "result": "0.5±0.9"}, {"measurement": "Central zone stay, OF test", "setting": "5xFAD mice [2]", "result": "250 ± 80", "unit": "s"}, {"measurement": "β-amyloid peptide in brain tissues (immunofluorescence)", "setting": "β-amyloid peptide", "result": "reduction of β-amyloid peptide"}, {"measurement": "IL-33 expression in brain tissues (immunofluorescence)", "setting": "IL-33 [3]", "result": "increase the expression of IL-33"}, {"measurement": "TREM2 expression in brain tissues (immunofluorescence)", "setting": "TREM2 [4]", "result": "increase in TREM2 expression"}, {"measurement": "increase in IL-33 expression in astrocytes (GFAP+ cells), flow cytometry", "setting": "IL-33 [5]", "result": 7, "unit": "fold"}, {"measurement": "increase in TREM2 expression in microglia (CD11b+ cells), flow cytometry", "setting": "TREM2 [6]", "result": 10, "unit": "fold"}, {"measurement": "IL-6 expression in peripheral leukocytes, flow cytometry", "setting": "IL-6", "result": "2.1±1.4", "unit": "%"}]}]}
